{"source": "ChEMBL document CHEMBL4251601", "about": "(Eur J Med Chem, 2018)", "key": {"[1]": {"experiment": "AUC (0 to infinity) in Sprague-Dawley rat at 5 mg/kg, po administered as single dose by LC-MS/MS analysis", "format": "ADME, organism-based", "parameters": "dose 5 mg/kg, route oral, time infinity", "conditions": "Sprague-Dawley, in vivo"}, "[2]": {"molecular_target": "Ephrin type-A receptor 2 (Homo sapiens) (UniProt P29317)", "experiment": "Inhibition of recombinant human GST-tagged EPHA2 cytoplasmic domain expressed in baculovirus expression system at 0.1 uM by Z'-Lyte assay relative to control"}, "[3]": {"molecular_target": "Tyrosine-protein kinase receptor TYRO3 (Homo sapiens) (UniProt Q06418)", "experiment": "Inhibition of recombinant human GST-tagged TYRO3 cytoplasmic domain (451 to 890 residues) expressed in baculovirus expression system at 0.1 uM by Z'-Lyte assay relative to control"}, "[4]": {"molecular_target": "Mitogen-activated protein kinase 14 (Homo sapiens) (UniProt Q16539)", "sequence (Q16539 whole entry)": "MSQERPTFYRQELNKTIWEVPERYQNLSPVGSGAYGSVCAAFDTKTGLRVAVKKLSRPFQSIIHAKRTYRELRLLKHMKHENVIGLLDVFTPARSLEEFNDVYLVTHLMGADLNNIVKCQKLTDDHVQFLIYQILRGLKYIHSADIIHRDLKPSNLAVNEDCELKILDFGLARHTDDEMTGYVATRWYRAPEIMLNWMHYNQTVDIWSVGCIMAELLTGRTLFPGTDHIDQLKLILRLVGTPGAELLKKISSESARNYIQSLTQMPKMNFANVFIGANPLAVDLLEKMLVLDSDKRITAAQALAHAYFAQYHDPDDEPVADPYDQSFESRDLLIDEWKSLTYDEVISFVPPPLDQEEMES", "experiment": "Inhibition of recombinant human full length GST-tagged p38alpha expressed in Escherichia coli at 1 uM by Z'-Lyte assay relative to control"}, "[5]": {"system": "U-87 MG", "experiment": "Antitumor activity against luciferase-fused human U87MG cells orthotopically xenografted in nude mouse assessed as tumor growth inhibition at 12.5 mg/kg, po qd for 4 weeks by bioluminescence imaging relative to control", "format": "functional, U-87MG ATCC", "conditions": "672 h, read-out: TGI"}, "[6]": {"experiment": "Tmax in CD-1 mouse plasma at 10 mg/kg, po administered as single dose by LC-MS/MS analysis", "format": "ADME, organism-based"}, "[7]": {"molecular_target": "G protein-coupled receptor kinase 4 (Homo sapiens) (UniProt P32298)", "sequence (P32298 whole entry, looked up)": "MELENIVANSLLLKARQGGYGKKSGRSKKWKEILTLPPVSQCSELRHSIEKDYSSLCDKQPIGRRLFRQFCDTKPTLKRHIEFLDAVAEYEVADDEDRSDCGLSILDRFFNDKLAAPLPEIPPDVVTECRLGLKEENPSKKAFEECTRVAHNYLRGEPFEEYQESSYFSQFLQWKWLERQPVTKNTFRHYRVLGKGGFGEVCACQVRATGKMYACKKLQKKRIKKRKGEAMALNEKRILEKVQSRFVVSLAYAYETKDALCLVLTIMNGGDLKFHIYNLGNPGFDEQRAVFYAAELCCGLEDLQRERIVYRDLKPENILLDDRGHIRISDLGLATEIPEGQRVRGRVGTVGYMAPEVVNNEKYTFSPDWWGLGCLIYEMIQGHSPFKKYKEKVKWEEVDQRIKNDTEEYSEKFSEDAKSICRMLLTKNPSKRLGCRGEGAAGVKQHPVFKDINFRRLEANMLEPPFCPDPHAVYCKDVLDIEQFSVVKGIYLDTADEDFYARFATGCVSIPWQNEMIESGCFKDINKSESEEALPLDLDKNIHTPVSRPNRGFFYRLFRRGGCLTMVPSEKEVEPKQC", "experiment": "Inhibition of recombinant human full length GST-tagged GRK4 expressed in baculovirus expression system at 1 uM by Z'-Lyte assay relative to control"}, "[8]": {"molecular_target": "Cytoplasmic tyrosine-protein kinase BMX (Homo sapiens) (UniProt P51813)", "experiment": "Inhibition of recombinant full length human His-tagged BMX expressed in baculovirus expression system at 1 uM by TR-FRET assay relative to control"}, "[9]": {"molecular_target": "T1, Mitogen-activated protein kinase kinase kinase 14 (Homo sapiens, UniProt Q99558)", "experiment": "Inhibition of recombinant human GST-tagged NIK expressed in baculovirus expression system using ser/thr-7 as substrate preincubated for 15 mins followed by ATP addition measured after 60 mins"}, "[10]": {"molecular_target": "G protein-coupled receptor kinase 4 (Homo sapiens) (UniProt P32298)", "experiment": "Inhibition of recombinant human full length GST-tagged GRK4 expressed in baculovirus expression system at 0.1 uM by Z'-Lyte assay relative to control"}, "[11]": {"molecular_target": "T1, Mitogen-activated protein kinase kinase kinase 14", "experiment": "Inhibition of recombinant human GST-tagged NIK expressed in baculovirus expression system at 1 uM by Z'-Lyte assay relative to control"}, "[12]": {"molecular_target": "Glycogen synthase kinase-3 beta (Homo sapiens) (UniProt P49841)", "sequence (P49841 whole entry, looked up)": "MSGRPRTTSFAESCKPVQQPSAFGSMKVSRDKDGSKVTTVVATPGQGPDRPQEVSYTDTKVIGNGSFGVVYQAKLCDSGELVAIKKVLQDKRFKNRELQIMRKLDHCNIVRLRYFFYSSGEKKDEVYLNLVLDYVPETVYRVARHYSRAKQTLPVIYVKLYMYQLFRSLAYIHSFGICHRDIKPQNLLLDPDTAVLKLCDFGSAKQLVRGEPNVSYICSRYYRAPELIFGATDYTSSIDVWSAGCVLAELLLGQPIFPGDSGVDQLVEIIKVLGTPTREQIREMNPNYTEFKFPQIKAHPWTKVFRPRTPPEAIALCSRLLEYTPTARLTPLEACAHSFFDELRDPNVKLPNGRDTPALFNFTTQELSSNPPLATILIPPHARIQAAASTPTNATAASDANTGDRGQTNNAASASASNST", "experiment": "Inhibition of recombinant human full length His-tagged GSK3beta expressed in baculovirus expression system at 1 uM by Z'-Lyte assay relative to control"}, "[13]": {"experiment": "AUC (0 to 48 hrs) in CD-1 mouse plasma at 10 mg/kg, po administered as single dose by LC-MS/MS analysis", "format": "ADME, organism-based", "parameters": "time < 48 hr, dose 10 mg/kg, route oral"}, "[14]": {"molecular_target": "Glycogen synthase kinase-3 beta (Homo sapiens) (UniProt P49841)", "experiment": "Inhibition of recombinant human full length His-tagged GSK3beta expressed in baculovirus expression system at 0.1 uM by Z'-Lyte assay relative to control"}, "[15]": {"system": "U-87 MG", "experiment": "Antitumor activity against luciferase-fused human U87MG cells orthotopically xenografted in nude mouse assessed as tumor growth inhibition at 25 mg/kg, po qd for 4 weeks by bioluminescence imaging relative to control", "format": "functional, U-87MG ATCC", "conditions": "672 h, read-out: TGI"}, "[16]": {"molecular_target": "Tyrosine-protein kinase JAK1 (Homo sapiens) (UniProt P23458)", "experiment": "Inhibition of recombinant human GST-tagged JAK1 expressed in baculovirus expression system at 0.1 uM by TR-FRET assay relative to control"}, "[17]": {"molecular_target": "Cyclin-dependent kinase 4/cyclin D1 (Homo sapiens, UniProt P11802)", "sequence (P11802 whole entry)": "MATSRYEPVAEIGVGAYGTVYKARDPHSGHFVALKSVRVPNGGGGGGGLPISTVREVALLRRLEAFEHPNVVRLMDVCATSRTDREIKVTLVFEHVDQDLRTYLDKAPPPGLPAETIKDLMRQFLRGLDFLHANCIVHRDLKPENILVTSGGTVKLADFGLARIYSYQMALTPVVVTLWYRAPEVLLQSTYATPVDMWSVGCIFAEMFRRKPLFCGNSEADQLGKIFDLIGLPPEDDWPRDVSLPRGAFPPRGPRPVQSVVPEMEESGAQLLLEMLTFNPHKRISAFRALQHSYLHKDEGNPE", "sequence (P24385 whole entry, further chain)": "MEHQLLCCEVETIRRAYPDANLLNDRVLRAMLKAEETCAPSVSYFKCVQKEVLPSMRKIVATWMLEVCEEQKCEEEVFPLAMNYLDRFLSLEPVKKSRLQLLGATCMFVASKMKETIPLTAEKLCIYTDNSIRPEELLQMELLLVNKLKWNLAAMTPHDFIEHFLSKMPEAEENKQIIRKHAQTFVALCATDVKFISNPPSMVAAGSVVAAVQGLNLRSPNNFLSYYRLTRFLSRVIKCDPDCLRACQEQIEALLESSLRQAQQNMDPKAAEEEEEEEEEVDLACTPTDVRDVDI", "experiment": "Inhibition of CDK4/Cyclin-D1 (unknown origin) using histone-H1 as substrate after 90 mins by ADP-Glo assay", "format": "protein-complex assay"}, "[18]": {"molecular_target": "Dual specificity tyrosine-phosphorylation-regulated kinase 3 (Homo sapiens) (UniProt O43781)", "experiment": "Inhibition of recombinant full length human GST-tagged DYRK3 expressed in baculovirus expression system at 1 uM by Z'-Lyte assay relative to control"}, "[19]": {"molecular_target": "Proto-oncogene tyrosine-protein kinase receptor Ret (Homo sapiens) (UniProt P07949)", "experiment": "Inhibition of recombinant human GST-tagged RET cytoplasmic domain (658 to 1114 residues) expressed in baculovirus expression system at 0.1 uM by Z'-Lyte assay relative to control"}, "[20]": {"molecular_target": "CDK6/cyclin D3 (Homo sapiens, UniProt Q00534)", "experiment": "Inhibition of CDK6/Cyclin-D3 (unknown origin) using histoneH1 as substrate after 90 mins by ADP-Glo assay", "format": "protein-complex assay"}, "[21]": {"molecular_target": "Epidermal growth factor receptor (Homo sapiens) (UniProt P00533)", "sequence (P00533 whole entry, the tested form may be a part)": "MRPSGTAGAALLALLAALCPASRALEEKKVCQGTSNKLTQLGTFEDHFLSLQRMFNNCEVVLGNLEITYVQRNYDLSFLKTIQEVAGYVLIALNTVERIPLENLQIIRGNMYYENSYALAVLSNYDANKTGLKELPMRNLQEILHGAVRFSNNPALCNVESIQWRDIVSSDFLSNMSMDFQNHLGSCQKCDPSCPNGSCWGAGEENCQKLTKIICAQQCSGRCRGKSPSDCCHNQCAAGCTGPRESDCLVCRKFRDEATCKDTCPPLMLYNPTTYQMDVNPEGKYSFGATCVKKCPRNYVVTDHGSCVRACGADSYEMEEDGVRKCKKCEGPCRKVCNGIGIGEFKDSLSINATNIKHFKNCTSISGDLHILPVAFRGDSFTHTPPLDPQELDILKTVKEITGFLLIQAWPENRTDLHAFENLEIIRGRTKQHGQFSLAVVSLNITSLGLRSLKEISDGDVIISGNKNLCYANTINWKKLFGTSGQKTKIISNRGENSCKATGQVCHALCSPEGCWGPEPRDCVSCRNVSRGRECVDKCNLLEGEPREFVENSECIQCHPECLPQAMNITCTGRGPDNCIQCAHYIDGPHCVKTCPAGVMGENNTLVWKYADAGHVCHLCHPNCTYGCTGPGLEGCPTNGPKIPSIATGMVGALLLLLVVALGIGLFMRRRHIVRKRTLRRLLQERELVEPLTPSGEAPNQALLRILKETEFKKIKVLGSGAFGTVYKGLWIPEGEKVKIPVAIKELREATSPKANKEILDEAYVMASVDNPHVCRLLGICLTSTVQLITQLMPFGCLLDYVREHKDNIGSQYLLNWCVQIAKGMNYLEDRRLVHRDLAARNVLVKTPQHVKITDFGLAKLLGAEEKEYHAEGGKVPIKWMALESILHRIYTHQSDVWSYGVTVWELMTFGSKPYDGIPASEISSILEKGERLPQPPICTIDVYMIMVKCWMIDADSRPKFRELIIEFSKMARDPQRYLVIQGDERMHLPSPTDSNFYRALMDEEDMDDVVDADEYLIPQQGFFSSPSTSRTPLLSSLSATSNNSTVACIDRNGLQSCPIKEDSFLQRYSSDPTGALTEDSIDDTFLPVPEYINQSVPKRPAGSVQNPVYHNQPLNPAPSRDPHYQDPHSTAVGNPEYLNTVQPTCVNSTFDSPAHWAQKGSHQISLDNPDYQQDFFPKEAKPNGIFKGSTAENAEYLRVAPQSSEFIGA", "experiment": "Inhibition of recombinant human GST-tagged EGFR cytoplasmic domain expressed in baculovirus expression system at 1 uM by TR-FRET assay relative to control"}, "[22]": {"experiment": "Cmax in Sprague-Dawley rat at 5 mg/kg, po administered as single dose by LC-MS/MS analysis", "format": "ADME, organism-based", "parameters": "dose 5 mg/kg, route oral", "conditions": "in vivo"}, "[23]": {"system": "Mus musculus", "experiment": "In vivo inhibition of CDK4/6 in nude mouse xenografted with human COLO205 cells assessed as reduction in Ser-780-phosphorylated Rb level in tumor administered via oral gavage after 24 hrs by Western blot analysis", "format": "functional, organism-based"}, "[24]": {"molecular_target": "Tyrosine-protein kinase SYK (Homo sapiens) (UniProt P43405)", "experiment": "Inhibition of recombinant human full length GST-tagged SYK expressed in baculovirus expression system at 1 uM by Z'-Lyte assay relative to control"}, "[25]": {"molecular_target": "Tyrosine-protein kinase Srms (Homo sapiens) (UniProt Q9H3Y6)", "experiment": "Inhibition of recombinant human full length GST-tagged SRMS expressed in baculovirus expression system at 1 uM by TR-FRET assay relative to control"}, "[26]": {"molecular_target": "RAC-beta serine/threonine-protein kinase (Homo sapiens) (UniProt P31751)", "sequence (P31751 whole entry)": "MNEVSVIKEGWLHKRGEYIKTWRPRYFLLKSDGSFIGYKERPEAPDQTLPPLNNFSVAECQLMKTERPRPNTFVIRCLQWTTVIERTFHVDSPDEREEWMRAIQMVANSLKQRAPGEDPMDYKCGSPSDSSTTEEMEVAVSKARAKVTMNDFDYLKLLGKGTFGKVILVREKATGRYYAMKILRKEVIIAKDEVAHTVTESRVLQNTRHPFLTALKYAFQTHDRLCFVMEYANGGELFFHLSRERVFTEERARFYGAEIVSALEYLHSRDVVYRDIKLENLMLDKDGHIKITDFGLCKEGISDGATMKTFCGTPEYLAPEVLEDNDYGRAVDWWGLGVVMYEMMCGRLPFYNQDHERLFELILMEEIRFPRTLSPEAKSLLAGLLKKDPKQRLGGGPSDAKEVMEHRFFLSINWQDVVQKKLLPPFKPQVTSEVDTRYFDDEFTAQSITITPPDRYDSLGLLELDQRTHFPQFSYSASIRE", "experiment": "Inhibition of recombinant full length human His-tagged AKT2 expressed in baculovirus expression system at 0.1 uM by TR-FRET assay relative to control"}, "[27]": {"experiment": "Cmax in CD-1 mouse brain at 10 mg/kg, po administered as single dose by LC-MS/MS analysis", "format": "ADME, organism-based", "parameters": "dose 10 mg/kg, route oral"}, "[28]": {"molecular_target": "Proto-oncogene tyrosine-protein kinase Src (Homo sapiens) (UniProt P12931)", "sequence (P12931 2-536 limits assumed)": "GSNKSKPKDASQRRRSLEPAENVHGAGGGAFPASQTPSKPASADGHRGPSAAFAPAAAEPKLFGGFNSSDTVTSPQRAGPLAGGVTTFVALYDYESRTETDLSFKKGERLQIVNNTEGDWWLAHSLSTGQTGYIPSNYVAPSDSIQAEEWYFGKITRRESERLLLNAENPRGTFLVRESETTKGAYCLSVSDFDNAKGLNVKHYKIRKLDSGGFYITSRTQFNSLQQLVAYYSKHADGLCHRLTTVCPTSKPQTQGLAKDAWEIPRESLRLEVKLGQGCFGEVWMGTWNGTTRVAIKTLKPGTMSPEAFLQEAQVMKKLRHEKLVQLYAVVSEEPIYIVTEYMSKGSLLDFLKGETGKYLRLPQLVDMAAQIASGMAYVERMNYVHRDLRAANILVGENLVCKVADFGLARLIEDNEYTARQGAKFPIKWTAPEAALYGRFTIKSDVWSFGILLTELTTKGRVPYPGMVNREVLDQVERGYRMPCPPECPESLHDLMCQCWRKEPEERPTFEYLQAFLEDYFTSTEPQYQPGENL", "experiment": "Inhibition of recombinant human full length His-tagged SRC expressed in baculovirus expression system at 0.1 uM by Z'-Lyte assay relative to control"}, "[29]": {"experiment": "Oral bioavailability in Sprague-Dawley rat at 5 mg/kg administered as single dose by LC-MS/MS analysis", "format": "ADME, organism-based", "conditions": "Sprague-Dawley, in vivo"}, "[30]": {"molecular_target": "Tyrosine-protein kinase Lck (Homo sapiens) (UniProt P06239)", "sequence (P06239 2-509 limits assumed)": "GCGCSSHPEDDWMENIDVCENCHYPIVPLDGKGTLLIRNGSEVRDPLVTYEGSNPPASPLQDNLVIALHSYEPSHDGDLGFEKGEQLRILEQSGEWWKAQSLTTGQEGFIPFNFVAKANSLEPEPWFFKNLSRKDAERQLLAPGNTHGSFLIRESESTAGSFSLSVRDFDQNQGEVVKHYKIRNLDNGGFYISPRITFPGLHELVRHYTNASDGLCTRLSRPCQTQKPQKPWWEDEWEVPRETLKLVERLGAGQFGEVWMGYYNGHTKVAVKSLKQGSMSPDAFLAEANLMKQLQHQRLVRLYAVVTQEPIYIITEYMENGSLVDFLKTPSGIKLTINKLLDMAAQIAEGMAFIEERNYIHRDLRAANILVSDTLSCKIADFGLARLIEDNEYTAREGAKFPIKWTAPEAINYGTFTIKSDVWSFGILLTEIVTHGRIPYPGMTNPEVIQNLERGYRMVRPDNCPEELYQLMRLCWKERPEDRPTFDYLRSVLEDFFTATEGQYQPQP", "experiment": "Inhibition of recombinant human full length His-tagged LCK expressed in baculovirus expression system at 1 uM by Z'-Lyte assay relative to control"}, "[31]": {"experiment": "Half life in ICR mouse at 5 mg/kg, po administered as single dose by LC-MS/MS analysis", "format": "ADME, organism-based", "conditions": "in vivo"}, "[32]": {"system": "Mus musculus", "experiment": "Toxicity in nude mouse orthotopically xenografted with luciferase-fused human U87MG cells assessed as body weight loss at 50 mg/kg, po qd for 5 weeks and measured on day 28 relative to control", "format": "organism-based", "conditions": "in vivo, 840 h"}}}
{"smiles": "CC1=Nc2c(F)cc(-c3nc(Nc4ccc(C5CCN(C)CC5)cn4)ncc3F)cc2C12CCCC2", "note": "[CROZBACICLIB]", "values": [{"measurement": "AUC(0-inf)", "setting": "[1]", "result": 1580, "unit": "ng·h/mL"}, {"measurement": "inhibition", "setting": "[2]", "result": 6, "unit": "%"}, {"measurement": "inhibition", "setting": "[3]", "result": 0, "unit": "%"}, {"measurement": "inhibition", "setting": "[4]", "result": -8, "unit": "%"}, {"measurement": "inhibition in vivo at 12.5 mg/kg", "setting": "[5]", "result": 92, "unit": "%"}, {"measurement": "Tmax", "setting": "[6]", "result": 2, "unit": "h"}, {"measurement": "inhibition", "setting": "[7]", "result": 1, "unit": "%"}, {"measurement": "inhibition", "setting": "[8]", "result": 19, "unit": "%"}, {"measurement": "IC50", "setting": "[9]", "result": 45, "unit": "nM"}, {"measurement": "inhibition", "setting": "[10]", "result": 0, "unit": "%"}, {"measurement": "inhibition", "setting": "[11]", "result": 105, "unit": "%"}, {"measurement": "inhibition", "setting": "[12]", "result": 81, "unit": "%"}, {"measurement": "AUC(0-t) at 48 h", "setting": "[13]", "result": 9060, "unit": "ng·h/mL"}, {"measurement": "inhibition", "setting": "[14]", "result": 12, "unit": "%"}, {"measurement": "inhibition in vivo at 25 mg/kg", "setting": "[15]", "result": 96, "unit": "%"}, {"measurement": "inhibition", "setting": "[16]", "result": 7, "unit": "%"}, {"measurement": "IC50", "setting": "[17]", "result": 3, "unit": "nM"}, {"measurement": "inhibition", "setting": "[18]", "result": 96, "unit": "%"}, {"measurement": "inhibition", "setting": "[19]", "result": 0, "unit": "%"}, {"measurement": "IC50", "setting": "[20]", "result": 1, "unit": "nM"}, {"measurement": "inhibition", "setting": "[21]", "result": 31, "unit": "%"}, {"measurement": "Cmax", "setting": "[22]", "result": 134, "unit": "ng/mL"}, {"measurement": "inhibition", "setting": "[23]", "result": "Dose-dependent effect"}, {"measurement": "inhibition", "setting": "[24]", "result": 26, "unit": "%"}, {"measurement": "inhibition", "setting": "[25]", "result": 6, "unit": "%"}, {"measurement": "inhibition", "setting": "[26]", "result": 1, "unit": "%"}, {"measurement": "Cmax", "setting": "[27]", "result": 2580, "unit": "ng/g"}, {"measurement": "inhibition", "setting": "[28]", "result": 3, "unit": "%"}, {"measurement": "bioavailability", "setting": "[29]", "result": 66, "unit": "%"}, {"measurement": "inhibition", "setting": "[30]", "result": 13, "unit": "%"}, {"measurement": "half-life", "setting": "[31]", "result": 8.38, "unit": "h"}, {"measurement": "Activity", "setting": "[32]", "result": 4.2, "unit": "%"}]}
